{"source": "patent US8598356B2", "about": "“Heteroaryl-substituted urea modulators of fatty acid amide hydrolase” (Janssen Pharmaceutica NV, priority 2008, dated 2013)", "key": {"[1]": {"target": "T1, Human FAAH (Homo sapiens, UniProt O00519)", "T1 construct": "expressed in transfected cells; alternatively T84 frozen cell pellets", "T1 sequence (O00519 1-579)": "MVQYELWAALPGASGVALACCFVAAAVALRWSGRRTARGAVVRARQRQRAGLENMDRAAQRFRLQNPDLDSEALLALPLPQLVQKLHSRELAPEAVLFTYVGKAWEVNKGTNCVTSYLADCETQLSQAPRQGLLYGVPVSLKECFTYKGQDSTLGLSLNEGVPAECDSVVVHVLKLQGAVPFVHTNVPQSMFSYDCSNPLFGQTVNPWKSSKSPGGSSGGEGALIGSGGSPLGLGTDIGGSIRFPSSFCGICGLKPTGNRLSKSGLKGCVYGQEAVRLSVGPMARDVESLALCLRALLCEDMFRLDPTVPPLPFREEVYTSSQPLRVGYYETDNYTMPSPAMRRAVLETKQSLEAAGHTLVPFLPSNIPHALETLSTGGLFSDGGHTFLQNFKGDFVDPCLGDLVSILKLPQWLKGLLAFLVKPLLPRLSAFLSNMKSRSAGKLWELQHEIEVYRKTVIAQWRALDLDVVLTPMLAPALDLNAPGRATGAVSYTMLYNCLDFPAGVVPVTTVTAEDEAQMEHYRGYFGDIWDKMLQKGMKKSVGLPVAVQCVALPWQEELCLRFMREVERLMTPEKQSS", "assay": "Assay Method 1: FAAH assay, hydrolysis of 3H-anandamide by cell homogenate", "type": "biochemical", "settings": "T84 or transfected SK-N-MC cell homogenate, 3H-AEA 80 nM, rt 1 h, average of results obtained", "description": "A. Transfection of Cells with Human FAAH\n(§1) A 10-cm tissue culture dish with a confluent monolayer of SK-N-MC cells was split 2 days (d) prior to transfection. Using sterile technique, the media was removed and the cells were detached from the dish by the addition of trypsin. One fifth of the cells were then placed onto a new 10-cm dish. Cells were grown in a 37° C. incubator with 5% CO2 in Minimal Essential Media Eagle with 10% Fetal Bovine Serum. After 2 d, cells were approximately 80% confluent. These cells were removed from the dish with trypsin and pelleted in a clinical centrifuge. The pellet was re-suspended in 400 μL complete media and transferred to an electroporation cuvette with a 0.4 cm gap between the electrodes. Supercoiled human FAAH cDNA (1 μg) was added to the cells and mixed. The voltage for the electroporation was set at 0.25 kV, and the capacitance was set at 960 μF. After electroporation, the cells were diluted into complete media (10 mL) and plated onto four 10-cm dishes. Because of the variability in the efficiency of electroporation, four different concentrations of cells were plated. The ratios used were 1:20, 1:10, and 1:5, with the remainder of the cells being added to the fourth dish. The cells were allowed to recover for 24 h before adding the selection media (complete media with 600 μg/mL G418). After 10 d, dishes were analyzed for surviving colonies of cells. Dishes with well-isolated colonies were used. Cells from individual colonies were isolated and tested.\n(§2) T84 frozen cell pellets or transfected SK-N-MC cells (contents of 1×15 cm culture dishes) were homogenized in 50 mL of FAAH assay buffer (125 mM Tris, 1 mM EDTA, 0.2% Glycerol, 0.02% Triton X-100, 0.4 mM Hepes, pH 9). The assay mixture consisted of 50 μL of the cell homogenate, 10 μL of the test compound, and 40 μL of anandamide [1-^3H-ethanolamine] (^3H-AEA, Perkin-Elmer, 10.3 Ci/mmol), which was added last, for a final tracer concentration of 80 nM. The reaction mixture was incubated at rt for 1 h. During the incubation, 96-well Multiscreen filter plates (catalog number MAFCNOB50; Millipore, Bedford, Mass., USA) were loaded with 25 μL of activated charcoal (Multiscreen column loader, catalog number MACL09625, Millipore) and washed once with 100 μL of MeOH. Also during the incubation, 96-well DYNEX MicroLite plates (catalog number NL510410) were loaded with 100 μL of MicroScint40 (catalog number 6013641, Packard Bioscience, Meriden, Conn., USA). After the 1 h incubation, 60 μL of the reaction mixture were transferred to the charcoal plates, which were then assembled on top of the DYNEX plates using\nCentrifuge Alignment Frames (catalog number MACF09604, Millipore). The unbound labeled ethanolamine was centrifuged through to the bottom plate (5 min at 2000 rpm), which was preloaded with the scintillant, as described above. The plates were sealed and left at rt for 1 h before counting on a Hewlett Packard TopCount.\n(§3) Results for compounds tested in these assays are summarized in Table 1, as an average of results obtained. Compounds were tested in free base, hydrochloride salt, and/or trifluoroacetic acid salt forms. Where activity is shown as greater than (>) a particular value, the value is the solubility limit of the compound in the assay medium or the highest concentration tested in the assay."}, "[2]": {"target": "T2, Rat FAAH (Rattus norvegicus, UniProt P97612)", "T2 construct": "expressed in transfected cells", "T2 sequence (P97612 1-579)": "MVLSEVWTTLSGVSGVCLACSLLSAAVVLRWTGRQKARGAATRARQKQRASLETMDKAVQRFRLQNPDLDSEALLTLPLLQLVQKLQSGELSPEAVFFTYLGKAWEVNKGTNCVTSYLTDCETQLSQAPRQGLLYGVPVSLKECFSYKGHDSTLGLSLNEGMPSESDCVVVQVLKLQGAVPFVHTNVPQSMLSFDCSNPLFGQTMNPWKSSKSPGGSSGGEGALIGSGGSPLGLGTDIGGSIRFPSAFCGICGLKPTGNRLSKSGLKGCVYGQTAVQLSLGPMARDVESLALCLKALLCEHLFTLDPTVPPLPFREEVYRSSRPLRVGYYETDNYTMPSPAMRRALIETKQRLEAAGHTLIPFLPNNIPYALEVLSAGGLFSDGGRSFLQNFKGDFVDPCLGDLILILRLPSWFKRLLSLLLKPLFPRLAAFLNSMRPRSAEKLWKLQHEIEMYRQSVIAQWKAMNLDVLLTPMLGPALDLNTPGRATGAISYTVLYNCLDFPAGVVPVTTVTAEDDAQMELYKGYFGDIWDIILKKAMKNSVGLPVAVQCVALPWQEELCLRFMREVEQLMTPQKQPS", "assay": "Assay Method 2: FAAH assay, hydrolysis of 3H-anandamide by cell homogenate", "type": "biochemical", "settings": "T84 or transfected SK-N-MC cell homogenate, 3H-AEA 80 nM, rt 1 h, average of results obtained", "description": "A. Transfection of Cells with Rat FAAH\nas §1, with “rat” for “human”, “[…]” for “960 μF.”\nas §2, with “25” for “25 μL”, “using Centrifuge Alignment Frames (catalog number MACF09604, Millipore). The unbound labeled ethanolamine was centrifuged through to the bottom plate (5 min at 2000 rpm), which was preloaded with the scintillant, as described above. The plates were sealed and left at rt for 1 h before counting on a Hewlett Packard TopCount.” for “using”\nas §3"}}, "data": [{"smiles": "O=C(Nc1ccncn1)N1CCCC(Cc2ccc(C(F)(F)F)cc2)C1", "note": "(stereo not drawn) [Example 2, N-Pyrimidin-4-yl-3-{[4-(trifluoromethyl)phenyl]methyl}piperidine-1-carboxamide]", "values": [{"measurement": "IC50", "setting": "[1]", "result": 8000, "unit": "nM"}, {"measurement": "IC50", "setting": "[2]", "result": "> 10000", "unit": "nM"}]}, {"smiles": "O=C(Nc1cnc2cccnn12)N1CCCC(Cc2cccc(Oc3ccc(F)cc3)c2)C1", "note": "(stereo not drawn) [Example 12, 3-[3-(4-Fluoro-phenoxy)-benzyl]-piperidine-1-carboxylic acid imidazo[1,2-b]pyridazin-3-ylamide]", "values": [{"measurement": "IC50", "setting": "[1]", "result": 56, "unit": "nM"}, {"measurement": "IC50", "setting": "[2]", "result": 7, "unit": "nM"}]}, {"smiles": "O=C(Nc1cccnc1)N1CCCC(Cc2cccc(Oc3ccc(OC(F)(F)F)cc3)c2)C1", "note": "(stereo not drawn) [Example 15, 3-[3-(4-Trifluoromethoxy-phenoxy)-benzyl]-piperidine-1-carboxylic acid pyridine-3-ylamide]", "values": [{"measurement": "IC50", "setting": "[1]", "result": 11, "unit": "nM"}, {"measurement": "IC50", "setting": "[2]", "result": 17, "unit": "nM"}]}, {"smiles": "O=C(Nc1cccnc1)N1CCCC(Cc2cccc(OC(F)(F)F)c2)C1", "note": "(stereo not drawn) [Example 18, 3-(3-Trifluoromethoxy-benzyl)-piperidine-1-carboxylic acid pyridin-3-ylamide]", "values": [{"measurement": "IC50", "setting": "[1]", "result": 190, "unit": "nM"}, {"measurement": "IC50", "setting": "[2]", "result": 450, "unit": "nM"}]}, {"smiles": "O=C(Nc1cccnc1)N1CCCC(Cc2cccc(Oc3ccc(Cl)cc3)c2)C1", "note": "(single isomer, unassigned; (-)) [Example 14, (−)-3-[3-(4-Chloro-phenoxy)-benzyl]-piperidine-1-carboxylic acid pyridin-3-ylamide]", "values": [{"measurement": "IC50", "setting": "[1]", "result": 73, "unit": "nM"}, {"measurement": "IC50", "setting": "[2]", "result": 27, "unit": "nM"}]}, {"smiles": "O=C(Nc1cccnc1)N1CCCC(Cc2ccc(Cl)c(Cl)c2)C1", "note": "(stereo not drawn) [Example 17, 3-(3,4-Dichloro-benzyl)-piperidine-1-carboxylic acid pyridin-3-ylamide]", "values": [{"measurement": "IC50", "setting": "[1]", "result": 48, "unit": "nM"}, {"measurement": "IC50", "setting": "[2]", "result": 180, "unit": "nM"}]}, {"smiles": "O=C(Nc1cccnc1)N1CCCC(Cc2ccc(OC(F)(F)F)cc2)C1", "note": "(stereo not drawn) [Example 19, 3-(4-Trifluoromethoxy-benzyl)-piperidine-1-carboxylic acid pyridin-3-ylamide]", "values": [{"measurement": "IC50", "setting": "[1]", "result": 430, "unit": "nM"}, {"measurement": "IC50", "setting": "[2]", "result": 1600, "unit": "nM"}]}, {"smiles": "O=C(Nc1cnccc1Cl)N1CCCC(Cc2cccc(Oc3ccc(F)cc3)c2)C1", "note": "(stereo not drawn) [Example 11, 3-[3-(4-Fluoro-phenoxy)-benzyl]-piperidine-1-carboxylic acid (4-chloro-pyridin-3-yl)-amide]", "values": [{"measurement": "IC50", "setting": "[1]", "result": 87, "unit": "nM"}, {"measurement": "IC50", "setting": "[2]", "result": 8, "unit": "nM"}]}, {"smiles": "O=C(Nc1cccnc1)N1CCCC(Cc2cccc(Oc3ccc(F)cc3)c2)C1", "note": "(stereo not drawn) [Example 10, 3-[3-(4-Fluorophenoxy)benzyl]-N-pyridin-3-ylpiperidine-1-carboxamide]", "values": [{"measurement": "IC50", "setting": "[1]", "result": 18, "unit": "nM"}, {"measurement": "IC50", "setting": "[2]", "result": 19, "unit": "nM"}]}, {"smiles": "O=C(Nc1ccon1)N1CCCC(Cc2cccc(C(F)(F)F)c2)C1", "note": "(stereo not drawn) [Example 9, N-Isoxazol-3-yl-3-{[3-(trifluoromethyl)phenyl]methyl}piperidine-1-carboxamide]", "values": [{"measurement": "IC50", "setting": "[1]", "result": 7000, "unit": "nM"}, {"measurement": "IC50", "setting": "[2]", "result": 9000, "unit": "nM"}]}, {"smiles": "O=C(Nc1ccon1)N1CCCC(Cc2ccc(C(F)(F)F)cc2)C1", "note": "(stereo not drawn) [Example 8, N-Isoxazol-3-yl-3-{[4-(trifluoromethyl)phenyl]methyl}piperidine-1-carboxamide]", "values": [{"measurement": "IC50", "setting": "[1]", "result": 10000, "unit": "nM"}, {"measurement": "IC50", "setting": "[2]", "result": "> 10000", "unit": "nM"}]}, {"smiles": "O=C(Nc1ccncn1)N1CCCC(Cc2cccc(C(F)(F)F)c2)C1", "note": "(stereo not drawn) [Example 3, N-Pyrimidin-4-yl-3-{[3-(trifluoromethyl)phenyl]methyl}piperidine-1-carboxamide]", "values": [{"measurement": "IC50", "setting": "[1]", "result": 8000, "unit": "nM"}, {"measurement": "IC50", "setting": "[2]", "result": 10000, "unit": "nM"}]}, {"smiles": "O=C(Nc1noc2ccccc12)N1CCCC(Cc2cccc(C(F)(F)F)c2)C1", "note": "(stereo not drawn) [Example 6, N-1,2-Benzisoxazol-3-yl-3-{[3-(trifluoromethyl)-phenyl]-methyl}-piperidine-1-carboxamide]", "values": [{"measurement": "IC50", "setting": "[1]", "result": 645, "unit": "nM"}, {"measurement": "IC50", "setting": "[2]", "result": 50, "unit": "nM"}]}, {"smiles": "O=C(Nc1cccnc1)N1CCCC(Cc2ccc3c(c2)OC(F)(F)O3)C1", "note": "(stereo not drawn) [Example 1, 3-(2,2-Difluoro-benzo[1,3]dioxol-5-ylmethyl)-piperidine-1-carboxylic acid pyridin-3-ylamide]", "values": [{"measurement": "IC50", "setting": "[1]", "result": 410, "unit": "nM"}, {"measurement": "IC50", "setting": "[2]", "result": 604, "unit": "nM"}]}, {"smiles": "O=C(Nc1noc2ccccc12)N1CCCC(Cc2ccc(C(F)(F)F)cc2)C1", "note": "(stereo not drawn) [Example 5, N-1,2-Benzisoxazol-3-yl-3-{[4-(trifluoromethyl)-phenyl]-methyl}-piperidine-1-carboxamide]", "values": [{"measurement": "IC50", "setting": "[1]", "result": 2000, "unit": "nM"}, {"measurement": "IC50", "setting": "[2]", "result": 183, "unit": "nM"}]}]}
